Measured values from article PMC10382584, “Macrocyclization of linear molecules by deep learning to facilitate macrocyclic drug candidates discovery” (Nature Communications, 2023).

Assays:
Assay in all cases: biochemical
Set-up in all cases: DiscoveRx KINOMEscan competition binding, percent of DMSO control signal at 100 nM
Details in all cases: read-out: Fig. 4a / Percent Control / Compound 1; percent of DMSO control, competition binding
ITK = ITK (Homo sapiens, UniProt Q08881)
[1] = target: T1, ABL1(T315I)-nonphosphorylated (Homo sapiens, UniProt P00519, T315I)
T1 construct: nonphosphorylated

VRK2 = VRK2 (Homo sapiens, UniProt Q86Y07)
MAP3K15 = MAP3K15 (Homo sapiens, UniProt Q6ZN16)
HIPK3 = HIPK3 (Homo sapiens, UniProt Q9H422)
Chain of HIPK3 (Q9H422 whole entry): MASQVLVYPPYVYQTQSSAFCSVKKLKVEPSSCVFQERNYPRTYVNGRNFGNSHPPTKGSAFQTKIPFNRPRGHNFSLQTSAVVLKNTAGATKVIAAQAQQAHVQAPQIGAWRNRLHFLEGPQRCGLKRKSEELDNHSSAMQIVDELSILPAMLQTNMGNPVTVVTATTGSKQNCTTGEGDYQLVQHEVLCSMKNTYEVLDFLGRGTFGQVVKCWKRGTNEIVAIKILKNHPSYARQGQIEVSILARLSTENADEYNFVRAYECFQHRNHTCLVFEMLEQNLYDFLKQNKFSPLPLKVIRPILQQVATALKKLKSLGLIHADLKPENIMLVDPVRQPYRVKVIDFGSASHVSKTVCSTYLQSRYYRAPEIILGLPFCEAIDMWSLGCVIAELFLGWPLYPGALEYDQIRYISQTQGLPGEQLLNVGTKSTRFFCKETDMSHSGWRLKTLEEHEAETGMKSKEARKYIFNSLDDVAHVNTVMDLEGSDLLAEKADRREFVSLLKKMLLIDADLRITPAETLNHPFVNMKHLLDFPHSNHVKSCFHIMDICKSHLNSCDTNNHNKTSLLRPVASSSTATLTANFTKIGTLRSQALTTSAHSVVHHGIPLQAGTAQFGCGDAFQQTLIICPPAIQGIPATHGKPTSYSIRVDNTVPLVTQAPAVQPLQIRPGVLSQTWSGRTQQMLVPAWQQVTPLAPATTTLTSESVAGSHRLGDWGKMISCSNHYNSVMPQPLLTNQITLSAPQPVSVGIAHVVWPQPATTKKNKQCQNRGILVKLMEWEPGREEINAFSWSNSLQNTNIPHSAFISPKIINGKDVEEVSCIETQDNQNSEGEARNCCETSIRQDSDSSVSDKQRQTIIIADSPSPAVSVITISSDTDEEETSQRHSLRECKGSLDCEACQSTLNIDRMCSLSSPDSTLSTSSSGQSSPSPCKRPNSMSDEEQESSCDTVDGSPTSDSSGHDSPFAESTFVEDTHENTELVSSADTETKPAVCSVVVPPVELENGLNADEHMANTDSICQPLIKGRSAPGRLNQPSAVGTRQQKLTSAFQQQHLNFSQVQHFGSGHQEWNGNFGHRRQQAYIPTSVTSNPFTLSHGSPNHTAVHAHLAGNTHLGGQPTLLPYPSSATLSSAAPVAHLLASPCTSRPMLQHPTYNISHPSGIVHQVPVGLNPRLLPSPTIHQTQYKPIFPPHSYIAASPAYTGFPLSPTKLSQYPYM

LATS1 = LATS1 (Homo sapiens, UniProt O95835)
SRPK1 = SRPK1 (Homo sapiens, UniProt Q96SB4)
Chain of SRPK1 (Q96SB4 whole entry): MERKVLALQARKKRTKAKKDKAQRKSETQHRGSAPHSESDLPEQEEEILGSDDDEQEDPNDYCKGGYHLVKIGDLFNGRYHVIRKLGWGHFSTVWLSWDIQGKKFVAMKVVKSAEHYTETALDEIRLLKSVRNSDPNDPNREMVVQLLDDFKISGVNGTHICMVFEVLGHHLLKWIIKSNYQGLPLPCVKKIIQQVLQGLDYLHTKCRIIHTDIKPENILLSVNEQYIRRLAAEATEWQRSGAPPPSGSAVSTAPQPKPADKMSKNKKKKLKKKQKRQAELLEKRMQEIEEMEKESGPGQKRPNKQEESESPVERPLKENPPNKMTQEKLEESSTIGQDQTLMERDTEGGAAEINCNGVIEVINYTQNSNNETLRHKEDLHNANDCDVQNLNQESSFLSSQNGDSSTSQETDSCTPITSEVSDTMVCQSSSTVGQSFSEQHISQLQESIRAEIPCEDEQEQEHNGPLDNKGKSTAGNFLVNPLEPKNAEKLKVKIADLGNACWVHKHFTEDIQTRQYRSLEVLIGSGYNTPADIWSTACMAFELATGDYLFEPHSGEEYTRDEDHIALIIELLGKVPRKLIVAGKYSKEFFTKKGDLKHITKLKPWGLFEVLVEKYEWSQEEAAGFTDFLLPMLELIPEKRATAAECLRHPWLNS

DRAK1 = target: T2, DRAK1 (Homo sapiens, UniProt Q9UEE5)
T2 construct: gene STK17A
T2 sequence (Q9UEE5 whole entry): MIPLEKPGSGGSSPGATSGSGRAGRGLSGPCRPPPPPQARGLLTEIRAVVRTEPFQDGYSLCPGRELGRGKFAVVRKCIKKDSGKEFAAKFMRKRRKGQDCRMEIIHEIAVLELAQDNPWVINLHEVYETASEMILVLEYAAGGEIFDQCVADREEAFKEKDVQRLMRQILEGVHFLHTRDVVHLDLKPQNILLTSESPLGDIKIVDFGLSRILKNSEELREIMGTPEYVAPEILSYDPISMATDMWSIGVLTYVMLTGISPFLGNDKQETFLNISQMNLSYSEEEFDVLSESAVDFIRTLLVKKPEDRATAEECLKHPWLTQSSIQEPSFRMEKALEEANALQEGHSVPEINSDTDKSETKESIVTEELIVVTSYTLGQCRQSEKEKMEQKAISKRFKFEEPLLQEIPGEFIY

[2] = target: T3, ABL1(Q252H)-phosphorylated (Homo sapiens, UniProt P00519, Q252H)
T3 construct: phosphorylated

KIT-autoinhibited = KIT-autoinhibited (Homo sapiens, UniProt P10721)
VPS34 = target: T4, VPS34 (Homo sapiens, UniProt Q8NEB9)
T4 construct: gene PIK3C3

AKT2 = AKT2 (Homo sapiens, UniProt P31751)
Chain of AKT2 (P31751 whole entry): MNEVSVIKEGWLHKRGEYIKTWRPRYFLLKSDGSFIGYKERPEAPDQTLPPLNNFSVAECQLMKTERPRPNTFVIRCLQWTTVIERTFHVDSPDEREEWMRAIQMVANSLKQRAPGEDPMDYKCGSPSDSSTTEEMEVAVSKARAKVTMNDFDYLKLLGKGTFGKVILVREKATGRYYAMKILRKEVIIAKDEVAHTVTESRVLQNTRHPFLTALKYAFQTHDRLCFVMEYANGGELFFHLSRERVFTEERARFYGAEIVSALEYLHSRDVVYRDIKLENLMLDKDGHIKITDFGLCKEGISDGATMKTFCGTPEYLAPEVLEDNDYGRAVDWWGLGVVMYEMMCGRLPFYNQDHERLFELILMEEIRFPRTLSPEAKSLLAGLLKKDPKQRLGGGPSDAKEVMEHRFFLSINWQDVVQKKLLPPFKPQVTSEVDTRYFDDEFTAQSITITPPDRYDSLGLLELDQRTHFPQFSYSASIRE

VEGFR2 = target: T5, VEGFR2 (Homo sapiens, UniProt P35968)
T5 construct: gene KDR

PIK4CB = target: T6, PIK4CB (Homo sapiens, UniProt Q9UBF8)
T6 construct: gene PI4KB
T6 sequence (Q9UBF8 whole entry): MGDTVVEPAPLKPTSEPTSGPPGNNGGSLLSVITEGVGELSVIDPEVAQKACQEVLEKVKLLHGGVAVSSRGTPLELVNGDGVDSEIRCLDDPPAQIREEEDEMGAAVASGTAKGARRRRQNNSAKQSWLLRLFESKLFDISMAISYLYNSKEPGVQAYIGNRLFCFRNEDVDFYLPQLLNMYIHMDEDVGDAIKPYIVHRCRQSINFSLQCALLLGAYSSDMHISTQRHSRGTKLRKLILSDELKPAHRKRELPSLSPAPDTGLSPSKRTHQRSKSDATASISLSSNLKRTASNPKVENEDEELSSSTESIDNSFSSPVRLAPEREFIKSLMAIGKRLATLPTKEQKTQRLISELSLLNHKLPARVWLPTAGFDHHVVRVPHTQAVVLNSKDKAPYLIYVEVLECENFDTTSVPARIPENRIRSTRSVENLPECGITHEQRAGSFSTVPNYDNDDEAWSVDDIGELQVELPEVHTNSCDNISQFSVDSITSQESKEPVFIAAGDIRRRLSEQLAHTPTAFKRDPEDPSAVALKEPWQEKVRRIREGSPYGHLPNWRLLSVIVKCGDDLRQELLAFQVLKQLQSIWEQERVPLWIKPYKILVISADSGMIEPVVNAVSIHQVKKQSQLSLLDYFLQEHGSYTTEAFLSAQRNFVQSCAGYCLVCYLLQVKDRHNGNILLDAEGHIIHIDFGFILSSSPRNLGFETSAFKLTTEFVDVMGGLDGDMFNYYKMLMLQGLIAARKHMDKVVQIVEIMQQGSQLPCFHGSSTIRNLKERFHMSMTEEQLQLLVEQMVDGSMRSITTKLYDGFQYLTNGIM

TRPM6 = TRPM6 (Homo sapiens, UniProt Q9BX84)
MRCKB = target: T7, MRCKB (Homo sapiens, UniProt Q9Y5S2)
T7 construct: gene CDC42BPB

EGFR(G719S) = EGFR(G719S) (Homo sapiens, UniProt P00533, G719S)
CDK4-cyclinD3 = target: T8, CDK4-cyclinD3 (Homo sapiens, UniProt P11802)
T8 construct: cyclinD3

[3] = target: T9, RSK2(Kin.Dom.2-C-terminal) (Homo sapiens, UniProt P51812)
T9 construct: gene RPS6KA3; Kin.Dom.2-C-terminal

MEK5 = target: T10, MEK5 (Homo sapiens, UniProt Q13163)
T10 construct: gene MAP2K5

ASK2 = target: T11, ASK2 (Homo sapiens, UniProt O95382)
T11 construct: gene MAP3K6
T11 sequence (O95382 whole entry): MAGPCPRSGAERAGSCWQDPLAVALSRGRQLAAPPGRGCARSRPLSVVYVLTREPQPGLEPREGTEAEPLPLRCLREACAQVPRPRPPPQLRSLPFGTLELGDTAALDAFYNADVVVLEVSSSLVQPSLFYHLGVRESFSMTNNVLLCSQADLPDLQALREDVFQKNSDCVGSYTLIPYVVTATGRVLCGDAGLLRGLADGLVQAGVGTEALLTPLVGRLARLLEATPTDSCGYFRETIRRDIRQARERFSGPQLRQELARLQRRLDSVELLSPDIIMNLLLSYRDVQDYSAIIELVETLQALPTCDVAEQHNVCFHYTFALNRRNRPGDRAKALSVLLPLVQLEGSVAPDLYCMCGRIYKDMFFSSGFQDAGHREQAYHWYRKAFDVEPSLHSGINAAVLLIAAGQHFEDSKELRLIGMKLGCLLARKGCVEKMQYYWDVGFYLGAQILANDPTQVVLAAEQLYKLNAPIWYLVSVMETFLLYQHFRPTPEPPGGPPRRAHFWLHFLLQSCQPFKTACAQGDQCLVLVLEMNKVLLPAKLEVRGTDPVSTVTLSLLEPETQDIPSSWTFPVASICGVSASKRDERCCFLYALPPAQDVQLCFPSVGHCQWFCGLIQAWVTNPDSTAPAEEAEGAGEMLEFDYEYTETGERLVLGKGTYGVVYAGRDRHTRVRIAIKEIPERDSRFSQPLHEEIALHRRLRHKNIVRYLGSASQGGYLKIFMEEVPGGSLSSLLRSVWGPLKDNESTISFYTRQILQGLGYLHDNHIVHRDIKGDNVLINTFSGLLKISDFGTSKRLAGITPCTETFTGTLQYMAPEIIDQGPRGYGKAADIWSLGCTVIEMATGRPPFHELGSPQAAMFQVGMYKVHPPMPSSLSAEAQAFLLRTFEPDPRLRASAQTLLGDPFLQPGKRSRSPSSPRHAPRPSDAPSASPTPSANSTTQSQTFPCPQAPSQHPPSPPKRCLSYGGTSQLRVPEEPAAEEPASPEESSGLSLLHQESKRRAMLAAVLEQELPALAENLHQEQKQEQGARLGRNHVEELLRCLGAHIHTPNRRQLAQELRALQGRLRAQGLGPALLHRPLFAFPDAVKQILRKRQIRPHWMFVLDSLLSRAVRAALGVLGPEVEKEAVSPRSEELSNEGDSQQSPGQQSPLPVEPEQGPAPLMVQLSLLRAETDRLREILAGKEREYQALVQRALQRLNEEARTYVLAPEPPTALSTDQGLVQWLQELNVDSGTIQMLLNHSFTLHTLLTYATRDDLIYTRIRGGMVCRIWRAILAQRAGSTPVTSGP

CHEK2 = CHEK2 (Homo sapiens, UniProt O96017)
ROCK1 = ROCK1 (Homo sapiens, UniProt Q13464)
HIPK4 = HIPK4 (Homo sapiens, UniProt Q8NE63)
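Note: KINOMEscan kinase panel binding assay, signal normalized between DMSO as 100% and a positive control compound as 0%.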

`Cc1cnc2nc1Nc1cccc(c1)COCc1cc(ccc1OCCN1CCCC1)N2` [Compound 1] gave a remaining binding at 0.1 µM (ITK) of 93%, a remaining binding at 0.1 µM [1] of 80% and a remaining binding at 0.1 µM (VRK2) of 97%. The remaining binding at 0.1 µM (MAP3K15) was 68%, the remaining binding at 0.1 µM (HIPK3) was 87% and the remaining binding at 0.1 µM (LATS1) was 100%. The remaining binding at 0.1 µM (SRPK1) was 97%, the remaining binding at 0.1 µM (DRAK1) was 100% and the remaining binding at 0.1 µM [2] was 59%. It also gave a remaining binding at 0.1 µM (KIT-autoinhibited) of 86%, a remaining binding at 0.1 µM (VPS34) of 27% and a remaining binding at 0.1 µM (AKT2) of 89%. The remaining binding at 0.1 µM (VEGFR2) was 63%, the remaining binding at 0.1 µM (PIK4CB) was 79% and the remaining binding at 0.1 µM (TRPM6) was 85%. It also gave a remaining binding at 0.1 µM (MRCKB) of 96%, a remaining binding at 0.1 µM (EGFR(G719S)) of 91% and a remaining binding at 0.1 µM (CDK4-cyclinD3) of 95%. It also gave a remaining binding at 0.1 µM [3] of 87%, a remaining binding at 0.1 µM (MEK5) of 22% and a remaining binding at 0.1 µM (ASK2) of 96%. It also gave a remaining binding at 0.1 µM (CHEK2) of 87%, a remaining binding at 0.1 µM (ROCK1) of 88% and a remaining binding at 0.1 µM (HIPK4) of 79%.
